Biological target: Integrase (Human immunodeficiency virus 1, UniProt Q7ZJM1)
Experiment: ChEBML_90573
Excerpt: Inhibitory activity against HIV-1 integrase

Sequence of Integrase (Q7ZJM1 whole entry): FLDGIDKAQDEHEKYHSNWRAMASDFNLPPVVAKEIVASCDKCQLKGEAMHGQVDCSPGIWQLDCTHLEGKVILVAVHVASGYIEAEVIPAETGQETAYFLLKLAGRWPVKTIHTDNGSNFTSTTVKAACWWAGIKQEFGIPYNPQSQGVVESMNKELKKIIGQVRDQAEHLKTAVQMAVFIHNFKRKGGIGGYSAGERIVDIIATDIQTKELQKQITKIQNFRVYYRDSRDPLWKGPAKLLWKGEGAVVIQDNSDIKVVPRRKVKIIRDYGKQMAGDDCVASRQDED

In the case of `CCCCC(C)/C=C(\C)C(=O)O[C@@H]1CC[C@H](C(=O)O)[C@@]2(C)CC(=C(C)C=O)C(=O)C=C12` (stereo partly drawn) [(1S,4R,7S,8aR)-4-((E)-2,4-Dimethyl-oct-2-enoyloxy)-7-(1-formyl-vinyl)-8a-methyl-6-oxo-1,2,3,4,6,7,8,8a-octahydro-naphthalene-1-carboxylic acid], the IC50 is reported as 3 µM.

From BindingDB's records for doi:10.1016/s0960-894x(99)00666-6 (Merck Research Laboratories, 2000)
